Measured values from US8486898B2, “Compounds and method for inhibiting the activity of gelatinase and collagenase” (Taipei Medical University (TMU), priority 2010, dated 2013).
Values joined by “and” are separate entries in the source; they are usually repeats but may differ in a detail not shown here. Equal entries are not always repeated. One block for each molecule: values may come before it.

Tests used:
Collagenase type IV = assay: Assay of Collagenase (DQ-gelatin fluorescence); assay type: biochemical; conditions: DQ-gelatin substrate
From the text: Collagenase type IV and DQ-gelatin was applied in this experiment, where DQ^198 (EnzChek Gelatinase/Collagenase Assay Kit, E-12055) is a kind of fluorescent material, which can bonded with gelatin to form DQ-gelatin. […] Thus, the principle of this experiment is that the activity of collagenase is examined by measuring emission intensity of DQ fluorescent as that the chemical bonding between DQ-gelatin can be enzymatically digested by collagenase.
The fluorescence intensity can be measured in a florescence micro-plate reader equipped with standard fluoresce in filters. Digested product from the DQ-gelatin and DQ collagen substrate has absorption wavelength at 495 nm and fluorescence emission wavelength at 515 nm. Therefore, the activity of collagenase can be determined when the fluorescence emission intensity at 515 nm larger than the blank. In other word, the resulting fluorescence emission intensity would decrease at 515 nm if the collagenase inhibitors were applied. The results of collagenase assay are provided on Table 7, and all values are present as Mean±S.E.M.

HT-1080 cell lines = assay: MTT cell viability assay; assay type: cell-based, human; conditions: HT-1080, 22 h + 2 h MTT, blank = 100, mean ± S.E.M.
From the text: (§1) HT-1080 cell line (ATCC:CCL-121) is a human skin fibroblasts tumor, which is a kind of adherent cell lines, secreting gelatinase, MMP-2 and MMP-9, to extracellular space.
(§2) Before carrying out any experimental process of HT-1080 cell lines, in order to enable HT-1080 cells to secrete more MMP-2 and MMP-9 to extracellular space, the medium RPMI-1640 containing 0.5% FBS (without phenol red) was applied when conducting the subcultivation process. After centrifugation, the medium RPMI-1640 containing only 0.5% FBS was added into centrifugal vials to resuspend the cells, and 20 μL of cell suspension solution was transferred into eppendorfs to mixed with 20 μL Trypan blue for cell dyeing. Finally, calculation of the cell concentration was accomplished by using hemocytometer through optical microscope.
(§3) Suitable amount of the medium RPMI-1640 (based on the cell concentration obtained previous) containing only 0.5% FBS (without phenol red) was applied into the remaining the cell suspension solution, as the resulting concentration of the cell suspension solution around 5×10^5 cells/mL. Afterwards, 500 μL of cell suspension solutions was transferred onto 24-well cell culture plates, followed by 24 hours incubation at 37° C. for the further experiments.
To test the cytotoxicity of 4GX and 4G to HT-1080 cell lines, the cell viability assay need to be conducted. MTT cell viability assay was chosen for this experiment.
The principle of a cell viability assay is the conversion of a yellow tetrazolium salt (MTT; 3-(4,5-Dimethylthiazol-2-yl)-2,5-diphenyl tetrazolium bromide) into a purple product formazan via […] in intact mitochondria, where formazan can be dissolved in dimethylsulfoxide (DMSO). Thus, the increasing yield of resulting product formazan stands for increasing the percentage of cell vitality.
The cell suspension solution (with concentration about 5×10^5 cells/mL) of the previous cell pre-treatment process was placed to a 24-well cell culture plates with 24 hours of incubation under 5% of CO2/air at 37° C. in 70% of humidity, in order to allow cells to grow adherent on the well. After 24 hours of incubation, 1 μL of the solutions containing chemical compounds, 4GX and 4G, prepared in different concentrations (5-100 μM) were applied into each well respectively as vehicle controls, whereas the well applied without any chemical compounds as blank. Finally, the 24-well cell culture plate was placed in incubator for 22 hours of incubation.
Subsequently, the following steps need to avoid the light. After 22 hours of incubation, 50 μL of 5.5 mg/mL MTT was applied in each well for 2 hours of incubation at 37° C. Afterwards, the supernatant was removed from 24-well cell culture plates, and 400 μL DMSO was applied to dissolve the purple product formazan for 15 minutes by shaker at 50 rpm. 150-200 μL of the solution were taken out from each well to examine the adsorption value by ELISA at wavelength 550 nm.
The formula for calculation of cell vitality is presented following: (Adsorption value of vehicle control/blank)×100%

pro MMP-2 = assay: Gelatin zymography of HT-1080 supernatants, pro MMP-2; assay type: cell-based, human; conditions: HT-1080 supernatant; for Inhibitory effectiveness (%) Pro MMP-2: 24 h; for IC50: gelatin zymography
From the text: as §1, §2, §3
(§4) To evaluation the inhibitory effectiveness of gelatinase of 4GX and 4G, a gelatin zymography is needed to be conducted.
(§5) The cell suspension solution (with concentration about 5×10^5 cells/mL) of the previous cell pre-treatment process was placed to a 24-well cell culture plates for 24 hours of incubation at 37° C. Subsequently, 1 μL of the solutions, containing 4GX and 4G, in different concentrations from 10 to 100 μM (10, 20, 50, 100 μM) were applied into each well respectively as vehicle controls, 1 μL of catechin in concentration of 100 μM was applied into the well as a positive control, whereas the well applied without any compounds is as blank, followed by 24 hours of incubation at 37° C. Afterwards, the plate was placed into ice to terminate the reaction, the supernatant of each well were taken out separately for the further experiments.
(§6) Supernatants and two volume of a sample loading dye (500 mM Tris-HCL, 25% Glycerol, 10% SDS, 0.32% Bromophenol blue, pH 6.8) and one volume of a dye were mixed together to use as the indicator of running end point. Afterwards, the enzyme activity was analyzed by polyacrylamide gel electrophoresis (PAGE).
(§7) 1% of gelatin and 10% of polyacrylamide were contained in the gel of PAGE, where gelatin acts as the substrate for gelatinase (pro MMP-2, MMP-2 and pro MMP-9). The running buffer was 25 mM Tris-base, 192 mM […] and 0.1% sodium dodecyl sulfate (SDS), pH 8.3, and the power supply was 125 V/80 mA.
(§8) Following the electrophoresis, the gel was washed with 2.5% Triton X-100 at 24° C. twice in 30 minutes to remove the dye and SDS from the gel. Afterwards, the gel was incubated with a reacting buffer (50 mM Tris-base, 200 mM NaCl, 5 mM CaCl2 and 0.02% Brij 35, pH 7.5) at 37° C. for 24 hours in a thermostatic cabinet, enabling gelatinase enzymatically react with gelatin. The fixing solution (7% acetic acid and 40% methanol) was subsequently applied to the gel for 30 minutes, in order to secure the proteins onto the gel. After 30 minutes, the gel was stained with Brilliant Blue G-Colloidial, and then destained with the destain solution (10% acetic acid and 40% methanol) for visualization of the gelatinase reactive positions against the background of the gel.
(§9) Finally, the gel was then analyzed by image analysis system (Vilber Lounmat, France), and the analysis software was Bio-1 Dversion 99. Setting the blank as reference, setting as 1, and the other groups are presented in relative values in contrast to blank.
(§10) The formula for calculating the inhibitory effectiveness is presented below. The results of gelatin zymography are provided on Table 6, and all values are presented as Mean±S.E.M. (the values of blank−vehicle controls)×100%

MMP-2 = assay: Gelatin zymography of HT-1080 supernatants, MMP-2; assay type: cell-based, human; conditions: HT-1080 supernatant; for Inhibitory effectiveness (%) MMP-2: 24 h; for IC50: gelatin zymography
From the text: as §1, §2, §3, §4, §5, §6, §7, §8, §9, §10

pro MMP-9 = assay: Gelatin zymography of HT-1080 supernatants, pro MMP-9; assay type: cell-based, human; conditions: HT-1080 supernatant; for Inhibitory effectiveness (%) pro MMP-9: 24 h; for IC50: gelatin zymography
From the text: as §1, §2, §3, §4, §5, §6, §7, §8, §9, §10

[1] = Transdermal penetration test, Franz-type diffusion cell; assay type: in vitro ADME, mice; conditions: for Average (μg) amount of 4G in the skins: average of three
From the text: Franz-type diffusion cell is the apparatus for this experiment, where its structure as a set of vertical double-diffusion and detachable glass containers. The upper donor chamber is a hollow cylindrical for the sample injection, and the bottom of the upper donor chamber has a contacting surface. The lower receptor chamber is double-layered hollow cylindrical diffusion container, where the inner layer of the receptor chamber made of glass contains a fluid for sampling, the outer layer of the receptor chamber is filled with circulating water kept at 37±1° C. for the human body simulation. The contact area between the donor chamber and the receptor chamber is 0.785 cm^2 (the actual penetration area), and the intermediate is fixed with nude and white mice (all three) skins (epidermis facing upwards) by metal clips as the in vitro transdermal penetration barriers.
The experimental method is presented below. First, 4G was dissolved in 30 wt % propylene glycol aqueous solution, followed transferring 0.5 mL of the aqueous solution (containing 0.25 mg) of 4G into the donor chamber of the Franz-type diffusion cell, and top of the open-ended donor chamber was covered with Parafilm® tightly, and the inner receptor chamber was filled with 5.5 mL of the buffer solution (30 wt % ethanol, phosphate buffer solution, pH 7.4), with continuously stirring at 600 rpm. 0.3 mL of the buffer solution was respectively sampled at time points of 1, 2, 4, 6, 8, 10, 12, 24, 36, and 48 hours, and with complete replacement of 0.3 mL of the buffer solution to keep fluid in the diffusion cell the same volume. Finally, the final compound of 4G accumulated in the fluid of the receptor chamber, was analyzed by liquid chromatography tandem mass spectrometry (LC-MS) to investigate the amount of the 4G penetrating through skins and reaching to the blood vessel,
After completing the previous experimental step, the compound, 4G, on the surface of nude and white mice skin were washed with deionized water. Afterwards, the skins were trimmed into the circles with diameter equal to the donor chamber, and following record the skin weight. The skins then placed in homogenizer with 1 mL alcohol at speed 300 rpm for 5 minutes, and followed with centrifugation process at 10000 rpm for 5 minutes. The supernatant was filtered by 0.45 μm PVDF and quantified the content of 4G by LC-MS.

Molecule: c1cnc2c(c1)ccc1cccnc12 [1, 10-phenanthroline, reference compound]
Inhibitory effectiveness % (collagenase) (Collagenase type IV; 20 μM): 12.80%
Inhibitory effectiveness % (collagenase) (Collagenase type IV; 40 μM): 38.41%

Molecule: O=C(OC[C@H]1O[C@@H](OC(=O)c2cc(O)c(O)c(O)c2)[C@H](OC(=O)c2cc(O)c(O)c(O)c2)[C@@H](OC(=O)c2cc(O)c(O)c(O)c2)[C@@H]1O)c1cc(O)c(O)c(O)c1 [4G, 1,2,3,6-tetra-O-galloyl-β-D-glucose]
Vitality (%) (HT-1080 cell lines; 10 μM): 93.45 ± 4.91%
Vitality (%) (HT-1080 cell lines; 20 μM): 87.30 ± 1.93%
Vitality (%) (HT-1080 cell lines; 50 μM): 93.06 ± 4.41%
Vitality (%) (HT-1080 cell lines; 100 μM): 87.81 ± 7.83%
Inhibitory effectiveness (%) Pro MMP-2 (pro MMP-2; 10 μM): 10.13%
Inhibitory effectiveness (%) Pro MMP-2 (pro MMP-2; 20 μM): 16.80%
Inhibitory effectiveness (%) Pro MMP-2 (pro MMP-2; 50 μM): 30.13%
Inhibitory effectiveness (%) Pro MMP-2 (pro MMP-2; 100 μM): 39.40%
IC50 (pro MMP-2): 99.6 µM
Inhibitory effectiveness (%) MMP-2 (MMP-2; 10 μM): 29.93%
Inhibitory effectiveness (%) MMP-2 (MMP-2; 20 μM): 48.07%
Inhibitory effectiveness (%) MMP-2 (MMP-2; 50 μM): 73.27%
IC50 (MMP-2): 23 µM
Inhibitory effectiveness (%) pro MMP-9 (pro MMP-9; 10 μM): 18.73%
Inhibitory effectiveness (%) pro MMP-9 (pro MMP-9; 20 μM): 28.70%
Inhibitory effectiveness (%) pro MMP-9 (pro MMP-9; 50 μM): 44.13%
Inhibitory effectiveness (%) pro MMP-9 (pro MMP-9; 100 μM): 53.50%
IC50 (pro MMP-9): > 100 µM
Inhibitory effectiveness % (collagenase) (Collagenase type IV; 20 μM): 50% and 52.12%
Inhibitory effectiveness % (collagenase) (Collagenase type IV; 40 μM): 61.73%
accumulated amounts of 4G of the fluid in the receptor chamber ([1]; nude and white mice skins, sampled 1 to 48 hours, LC-MS): nearly zero
Percentage of 4G in the mouse skins ([1]; nude mice skin): 27.84%
Average (μg) amount of 4G in the skins ([1]; nude mice skin): 1.17 ± 0.21 µg
The amount of 4G in the skins ([1]; nude mice skin, single samples, 0.25 mg in donor chamber, after 48 hours): 1.42 µg and 1.02 µg and 1.09 µg
Percentage of 4G in the mouse skins ([1]; white mice skin): 74.84%
Average (μg) amount of 4G in the skins ([1]; white mice skin): 6.07 ± 2.43 µg

IC50 (pro MMP-2): 30 µM
IC50 (MMP-2): 16.3 µM
IC50 (pro MMP-9): > 100 µM
Molecule: O=C(OCC1OC(OC(=O)c2cc(O)c(O)c(O)c2)C(OC(=O)c2cc(O)c(O)c(O)c2)C(OC(=O)c2cc(O)c(O)c(O)c2)C1OC(=O)c1ccc(O)cc1)c1cc(O)c(O)c(O)c1 [4GX, 1,2,3,6-tetra-O-galloyl-4-O-(4-hydroxybenzoyl)-β-D-glucopyranoside]
Vitality (%) (HT-1080 cell lines; 10 μM): 97.18 ± 6.52%
Vitality (%) (HT-1080 cell lines; 20 μM): 100.78 ± 4.06%
Vitality (%) (HT-1080 cell lines; 50 μM): 105.48 ± 2.18%
Vitality (%) (HT-1080 cell lines; 100 μM): 94.31 ± 9.76%
Inhibitory effectiveness (%) Pro MMP-2 (pro MMP-2; 10 μM): 15.83%
Inhibitory effectiveness (%) Pro MMP-2 (pro MMP-2; 20 μM): 31.53%
Inhibitory effectiveness (%) Pro MMP-2 (pro MMP-2; 50 μM): 62.30%
Inhibitory effectiveness (%) MMP-2 (MMP-2; 10 μM): 25.46%
Inhibitory effectiveness (%) MMP-2 (MMP-2; 20 μM): 63.57%
Inhibitory effectiveness (%) MMP-2 (MMP-2; 50 μM): 76.20%
Inhibitory effectiveness (%) pro MMP-9 (pro MMP-9; 10 μM): 3.80%
Inhibitory effectiveness (%) pro MMP-9 (pro MMP-9; 20 μM): 15.83%
Inhibitory effectiveness (%) pro MMP-9 (pro MMP-9; 50 μM): 32.17%
Inhibitory effectiveness (%) pro MMP-9 (pro MMP-9; 100 μM): 45.47%

Molecule: catechin [reference compound]
Inhibitory effectiveness (%) Pro MMP-2 (pro MMP-2; 100 μM): 56.30% and 72.97%
Inhibitory effectiveness (%) MMP-2 (MMP-2; 100 μM): 86.77% and 85.00%
Inhibitory effectiveness (%) pro MMP-9 (pro MMP-9; 100 μM): 64.30% and 76.07%
